Laboratory results taken from publication PMC12434667 (Journal of Medicinal Chemistry, 2025).
Converted amounts (≈) assume the structure as drawn.

Columns and labels:
[1] = system: panel of nonmutant kinases; experiment: Kinomescan panel; assay type: binding; conditions: for kinases tested showing >90% inhibition versus control: 1 μM, panel of 403 nonmutant kinases; for kinomescan S(10) score: 1 uM, nonmutant kinases with % Ctrl <10 / nonmutant kinases tested
[2] = molecular target: CDK6/CyclinD3 (Homo sapiens, UniProt Q00534); experiment: Biochemical enzymatic inhibition assay; conditions: biochemical IC50 vs CDK2
[3] = molecular target: CDK4/CyclinD3 (Homo sapiens, UniProt P11802); experiment: Biochemical enzymatic inhibition assay; conditions: biochemical IC50 vs CDK2
[4] = molecular target: CDK9/CyclinT1 (Homo sapiens, UniProt P50750); experiment: Biochemical enzymatic inhibition assay; conditions: biochemical IC50 vs CDK2
[5] = molecular target: CDK1/cyclinB1 (Homo sapiens, UniProt P06493); conditions: biochemical IC50 vs CDK2
[6] = LogD; assay type: physicochemical; conditions: 1-octanol/phosphate buffer, pH 7.4
[7] = molecular target: MDR1 (Homo sapiens, UniProt P08183); experiment: MDCK-MDR1 efflux ratio; assay type: in vitro ADME; conditions: dog, MDCK-MDR1, pH 7.4
[8] = Microsomal stability; assay type: in vitro ADME; conditions: rat, liver microsomes
[9] = FaSSIF solubility; assay type: physicochemical; conditions: kinetic from dmso stock
[10] = Microsomal stability; assay type: in vitro ADME; conditions: human, liver microsomes
[11] = Rat PK; assay type: in vivo; conditions: in vivo; for Vd / clearance / half-life: iv, 2 mg/kg; for bioavailability: oral, 10 mg/kg
[12] = MDCK passive permeability; assay type: in vitro ADME, canine; conditions: dog, pH 7.4
[13] = molecular target: CDK2 (Homo sapiens, UniProt P24941); experiment: 14-hr AlphaLISA of CDK2 degradation in MKN1 CCNE1amp cells; assay type: cell-based; conditions: read-out: MKN1 CDK2 DC50
[14] = molecular target: CDK2/CRBN (Homo sapiens, UniProt P24941+Q96SW2); experiment: AlphaLisa ternary complex formation assay; assay type: binding; conditions: compound 28 used as 100% control
[15] = molecular target: CYP3A4 (Homo sapiens, UniProt P08684); experiment: Cyp3A4 TDI; assay type: in vitro ADME
[16] = system: HCC1569 tumor xenograft; experiment: HCC1569 tumor xenograft efficacy; assay type: in vivo, mouse; conditions: 150 mg/kg PO BID, 28 days
[17] = CYP3A4 TDI (+NADPH), 30 min pre-incubation with NADPH
[18] = CYP3A4 TDI (-NADPH), 30 min pre-incubation without NADPH

Sequence of CYP3A4 (P08684 whole entry): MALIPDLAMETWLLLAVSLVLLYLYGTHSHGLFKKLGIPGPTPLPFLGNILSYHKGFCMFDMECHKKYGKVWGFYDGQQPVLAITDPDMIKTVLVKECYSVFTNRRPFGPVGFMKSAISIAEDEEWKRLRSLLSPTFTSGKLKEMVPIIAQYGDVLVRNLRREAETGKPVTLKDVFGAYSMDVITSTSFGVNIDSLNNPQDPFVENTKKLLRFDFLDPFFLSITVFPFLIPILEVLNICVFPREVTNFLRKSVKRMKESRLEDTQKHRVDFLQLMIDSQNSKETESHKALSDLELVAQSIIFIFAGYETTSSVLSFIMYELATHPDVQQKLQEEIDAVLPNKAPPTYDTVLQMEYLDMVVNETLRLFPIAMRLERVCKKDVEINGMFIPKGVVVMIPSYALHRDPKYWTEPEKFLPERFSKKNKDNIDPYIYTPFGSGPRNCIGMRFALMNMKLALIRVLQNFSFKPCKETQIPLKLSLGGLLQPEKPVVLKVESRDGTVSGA
Sequence of MDR1 (P08183 whole entry, species assumed): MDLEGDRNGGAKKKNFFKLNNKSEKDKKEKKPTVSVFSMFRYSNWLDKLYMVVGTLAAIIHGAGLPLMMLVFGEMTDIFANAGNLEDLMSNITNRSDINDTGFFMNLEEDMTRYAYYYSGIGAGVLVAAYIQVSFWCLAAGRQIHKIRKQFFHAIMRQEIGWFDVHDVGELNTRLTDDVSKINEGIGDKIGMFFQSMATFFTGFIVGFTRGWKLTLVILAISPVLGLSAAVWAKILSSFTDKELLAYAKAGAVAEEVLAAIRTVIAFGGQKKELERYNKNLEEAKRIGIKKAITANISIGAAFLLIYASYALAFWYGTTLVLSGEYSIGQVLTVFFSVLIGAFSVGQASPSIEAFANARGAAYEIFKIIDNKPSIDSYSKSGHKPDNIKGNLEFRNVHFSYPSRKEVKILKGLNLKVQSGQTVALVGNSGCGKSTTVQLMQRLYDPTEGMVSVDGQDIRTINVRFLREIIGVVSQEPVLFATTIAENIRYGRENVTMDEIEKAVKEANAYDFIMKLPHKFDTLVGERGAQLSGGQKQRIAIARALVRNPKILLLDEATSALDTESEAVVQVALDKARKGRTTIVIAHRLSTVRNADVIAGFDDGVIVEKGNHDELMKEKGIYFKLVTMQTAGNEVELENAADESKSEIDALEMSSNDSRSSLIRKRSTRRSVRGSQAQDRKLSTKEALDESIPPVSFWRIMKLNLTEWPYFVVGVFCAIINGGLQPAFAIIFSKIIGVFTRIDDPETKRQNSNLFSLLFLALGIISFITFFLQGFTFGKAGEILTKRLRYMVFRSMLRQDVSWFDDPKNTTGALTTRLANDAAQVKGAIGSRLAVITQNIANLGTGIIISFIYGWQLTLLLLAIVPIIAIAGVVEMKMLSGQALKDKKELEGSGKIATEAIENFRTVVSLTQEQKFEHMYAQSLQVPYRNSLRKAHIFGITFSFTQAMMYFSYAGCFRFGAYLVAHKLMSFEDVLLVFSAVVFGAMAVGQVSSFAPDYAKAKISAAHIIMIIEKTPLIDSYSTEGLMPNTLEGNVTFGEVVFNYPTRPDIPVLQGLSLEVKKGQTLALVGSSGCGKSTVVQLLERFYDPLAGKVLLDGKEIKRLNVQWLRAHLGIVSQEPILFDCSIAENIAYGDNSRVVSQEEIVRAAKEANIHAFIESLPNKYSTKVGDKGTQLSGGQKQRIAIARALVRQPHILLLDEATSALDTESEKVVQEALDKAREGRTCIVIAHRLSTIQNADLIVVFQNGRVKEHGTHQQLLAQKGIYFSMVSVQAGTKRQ
Sequence of CDK1/cyclinB1 (P14635 whole entry): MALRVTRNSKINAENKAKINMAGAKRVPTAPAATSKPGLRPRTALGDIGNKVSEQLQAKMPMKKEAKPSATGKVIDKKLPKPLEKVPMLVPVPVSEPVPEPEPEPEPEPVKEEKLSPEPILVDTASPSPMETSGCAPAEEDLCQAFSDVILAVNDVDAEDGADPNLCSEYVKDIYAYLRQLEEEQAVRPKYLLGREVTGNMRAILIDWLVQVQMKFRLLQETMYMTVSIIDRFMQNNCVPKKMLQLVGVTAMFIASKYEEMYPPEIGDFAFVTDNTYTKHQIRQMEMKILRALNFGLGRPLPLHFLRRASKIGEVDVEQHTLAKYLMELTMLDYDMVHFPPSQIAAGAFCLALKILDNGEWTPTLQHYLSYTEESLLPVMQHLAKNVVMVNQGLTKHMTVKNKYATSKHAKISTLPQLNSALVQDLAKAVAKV
Sequence of CDK1/cyclinB1 (P06493 whole entry): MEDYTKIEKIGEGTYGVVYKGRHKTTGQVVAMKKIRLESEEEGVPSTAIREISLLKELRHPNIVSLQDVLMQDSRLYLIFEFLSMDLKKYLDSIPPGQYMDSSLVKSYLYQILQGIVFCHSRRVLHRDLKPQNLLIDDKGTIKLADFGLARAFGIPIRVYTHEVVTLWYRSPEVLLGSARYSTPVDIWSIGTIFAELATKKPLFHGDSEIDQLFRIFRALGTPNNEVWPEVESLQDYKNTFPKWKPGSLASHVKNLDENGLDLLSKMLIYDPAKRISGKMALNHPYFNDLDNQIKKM
Sequence of CDK2/CRBN (Q16531 whole entry): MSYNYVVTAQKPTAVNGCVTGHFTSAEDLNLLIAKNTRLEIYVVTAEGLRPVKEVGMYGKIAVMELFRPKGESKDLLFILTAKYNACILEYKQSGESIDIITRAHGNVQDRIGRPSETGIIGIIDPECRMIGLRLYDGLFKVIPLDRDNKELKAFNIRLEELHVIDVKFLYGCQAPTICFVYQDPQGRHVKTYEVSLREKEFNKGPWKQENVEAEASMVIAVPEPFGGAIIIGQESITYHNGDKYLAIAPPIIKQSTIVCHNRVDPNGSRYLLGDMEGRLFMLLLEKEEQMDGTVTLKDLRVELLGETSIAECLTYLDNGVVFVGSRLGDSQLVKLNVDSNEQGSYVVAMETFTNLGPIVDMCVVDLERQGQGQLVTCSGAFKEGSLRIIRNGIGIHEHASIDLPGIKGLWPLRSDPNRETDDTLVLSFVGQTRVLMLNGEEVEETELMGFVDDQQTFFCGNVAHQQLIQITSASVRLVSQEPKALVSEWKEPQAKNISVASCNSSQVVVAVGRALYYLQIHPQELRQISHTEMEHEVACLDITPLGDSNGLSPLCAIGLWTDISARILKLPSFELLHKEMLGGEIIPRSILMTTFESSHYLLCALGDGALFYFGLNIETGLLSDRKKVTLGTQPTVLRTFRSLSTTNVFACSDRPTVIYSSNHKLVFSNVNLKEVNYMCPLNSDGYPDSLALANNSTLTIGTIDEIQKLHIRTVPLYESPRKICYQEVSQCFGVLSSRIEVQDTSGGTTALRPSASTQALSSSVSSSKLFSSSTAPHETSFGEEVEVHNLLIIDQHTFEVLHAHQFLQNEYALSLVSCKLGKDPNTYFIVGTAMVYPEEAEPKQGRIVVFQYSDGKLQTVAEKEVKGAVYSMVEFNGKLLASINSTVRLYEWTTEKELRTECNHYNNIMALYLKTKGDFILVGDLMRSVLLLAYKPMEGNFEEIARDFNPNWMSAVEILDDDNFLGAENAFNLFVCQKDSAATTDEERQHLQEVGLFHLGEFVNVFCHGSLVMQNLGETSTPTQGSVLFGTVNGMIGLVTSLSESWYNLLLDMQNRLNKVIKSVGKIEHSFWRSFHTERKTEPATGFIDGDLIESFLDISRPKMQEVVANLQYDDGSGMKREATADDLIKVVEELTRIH
Sequence of CDK2/CRBN (Q96SW2 40-442): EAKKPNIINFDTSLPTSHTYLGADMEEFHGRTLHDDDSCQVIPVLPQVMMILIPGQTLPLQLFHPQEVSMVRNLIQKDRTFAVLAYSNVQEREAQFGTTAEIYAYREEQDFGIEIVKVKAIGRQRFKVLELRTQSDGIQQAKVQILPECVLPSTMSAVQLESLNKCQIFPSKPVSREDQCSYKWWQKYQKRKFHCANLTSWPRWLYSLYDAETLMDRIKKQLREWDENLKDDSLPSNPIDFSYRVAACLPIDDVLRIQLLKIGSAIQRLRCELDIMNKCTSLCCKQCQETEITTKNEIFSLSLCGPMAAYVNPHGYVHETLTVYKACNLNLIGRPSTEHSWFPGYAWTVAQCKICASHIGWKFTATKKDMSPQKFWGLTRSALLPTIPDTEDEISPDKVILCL
Sequence of CDK4/CyclinD3 (P11802 whole entry): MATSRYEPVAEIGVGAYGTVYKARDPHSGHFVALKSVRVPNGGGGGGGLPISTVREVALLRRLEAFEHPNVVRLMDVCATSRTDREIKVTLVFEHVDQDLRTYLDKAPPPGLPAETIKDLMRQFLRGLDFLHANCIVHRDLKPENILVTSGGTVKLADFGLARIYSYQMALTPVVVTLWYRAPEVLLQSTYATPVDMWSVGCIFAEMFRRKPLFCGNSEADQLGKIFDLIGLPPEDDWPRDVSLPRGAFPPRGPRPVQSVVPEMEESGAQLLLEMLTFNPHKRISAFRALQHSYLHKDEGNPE
Sequence of CDK4/CyclinD3 (P30281 whole entry partner): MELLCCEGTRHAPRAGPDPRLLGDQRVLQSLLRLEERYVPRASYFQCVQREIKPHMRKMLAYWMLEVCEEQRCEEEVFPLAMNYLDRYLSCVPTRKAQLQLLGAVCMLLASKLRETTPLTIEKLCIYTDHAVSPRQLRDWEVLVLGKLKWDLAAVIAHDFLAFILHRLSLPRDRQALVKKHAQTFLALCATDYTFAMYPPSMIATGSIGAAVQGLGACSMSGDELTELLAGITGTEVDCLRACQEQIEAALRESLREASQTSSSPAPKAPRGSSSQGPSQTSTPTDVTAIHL
Sequence of CDK6/CyclinD3 (Q00534 whole entry): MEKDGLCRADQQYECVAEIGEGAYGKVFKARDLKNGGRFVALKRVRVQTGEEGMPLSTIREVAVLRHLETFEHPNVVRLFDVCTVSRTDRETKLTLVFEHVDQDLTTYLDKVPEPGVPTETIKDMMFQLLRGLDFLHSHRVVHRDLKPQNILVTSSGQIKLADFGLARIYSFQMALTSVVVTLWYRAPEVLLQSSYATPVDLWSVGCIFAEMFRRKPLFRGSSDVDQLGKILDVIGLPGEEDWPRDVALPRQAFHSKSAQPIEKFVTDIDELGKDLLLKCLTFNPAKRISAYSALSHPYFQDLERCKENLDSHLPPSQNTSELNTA
Sequence of CDK6/CyclinD3 (P30281 whole entry partner): as the sequence (P30281 whole entry partner) above

CNS(=O)(=O)c1ccc(Nc2ncc3cc(Cl)c(=O)n(C4CCCC4)c3n2)c(C)c1 [Compound 1]
kinases tested showing >90% inhibition versus control [1]: 18/403 | selectivity over CDK6 [2]: > 124 fold | selectivity over CDK4 [3]: > 44 fold

CNS(=O)(=O)c1ccc(Nc2ncc(C(F)(F)F)c([C@H]3CC[C@@](C)(O)CC3)n2)c(C)c1 [Compound 3]
selectivity vs CDK9 [4]: > 357 fold | kinases tested showing >90% inhibition versus control [1]: 2/403 | selectivity vs CDK1 [5]: 47 fold

CNS(=O)(=O)c1ccc(Nc2ncc(C(F)(F)F)c([C@H]3CC[C@](C)(O)CC3)n2)c(C)c1 [Compound 4, trans-4-[[4-(4-Hydroxy-4-methyl-cyclohexyl)-5-(trifluoromethyl)pyrimidin-2-yl]amino]-N,3-dimethyl-benzenesulfonamide]
selectivity vs CDK1 [5]: 16 fold

CNS(=O)(=O)c1ccc(Nc2ncc(C(F)(F)F)c(N3CCC[C@](C)(O)C3)n2)c(C)c1 [Compound 7]
selectivity vs CDK9 [4]: > 5000 fold | kinases tested showing >90% inhibition versus control [1]: 4/403 | selectivity vs CDK1 [5]: 42 fold

Cc1cc(S(=O)(=O)NCCO[C@H]2CC[C@H](CN3CCC(c4ccc5c(c4)n(C)c(=O)n5C4CCC(=O)NC4=O)CC3)CC2)ccc1Nc1ncc(C(F)(F)F)c([C@H]2CC[C@@](C)(O)CC2)n1 (stereo partly shown) [Compound 8]
logD at 1 h [6]: 4.1 | efflux ratio at 120 min, 1 μM [7]: > 30 | CLint scaled at 1 µM [8]: < 1.26 L/h/kg | solubility at 2 h [9]: 153 µM (≈ 142 µg/mL) | CLint scaled at 1 µM [10]: 4.74 L/h/kg | Vd [11]: 15 L/kg | clearance [11]: 3.54 L/h/kg | half-life [11]: 5.7 h | bioavailability [11]: 1% | Papp A→B at 120 min, 1 µM [12]: 10 nm/s | DC50 [13]: 0.0049 µM

Cc1cc(S(=O)(=O)NCCO[C@H]2CC[C@H](CN3CCC(c4ccc5c(c4F)n(C)c(=O)n5C4CCC(=O)NC4=O)CC3)CC2)ccc1Nc1ncc(C(F)(F)F)c([C@H]2CC[C@@](C)(O)CC2)n1 (stereo partly shown) [Compound 9]
logD at 1 h [6]: 4.6 | efflux ratio at 120 min, 1 μM [7]: > 54 | CLint scaled at 1 µM [8]: 1.56 L/h/kg | solubility at 2 h [9]: 173 µM (≈ 163 µg/mL) | CLint scaled at 1 µM [10]: 6.12 L/h/kg | Vd [11]: 11 L/kg | clearance [11]: 2.7 L/h/kg | half-life [11]: 4.9 h | bioavailability [11]: 5% | Papp A→B at 120 min, 1 µM [12]: 20 nm/s | DC50 [13]: 0.012 µM

[2H][C@@](C)(COC1CCC(CN2CCN(c3ccc4c(c3F)n(C)c(=O)n4C3CCC(=O)NC3=O)CC2)CC1)NS(=O)(=O)c1ccc(Nc2ncc(C(F)(F)F)c(N3CCC[C@](C)(O)C3)n2)c(C)c1 (stereo partly shown) [Compound 13]
logD at 1 h [6]: 4.6 | efflux ratio at 120 min, 1 μM [7]: 91 | CLint scaled at 1 µM [8]: 1.5 L/h/kg | solubility at 2 h [9]: 62 µM (≈ 59.5 µg/mL) | CLint scaled at 1 µM [10]: 8.58 L/h/kg | Papp A→B at 120 min, 1 µM [12]: 23 nm/s | DC50 [13]: 0.001 µM

Cc1cc(S(=O)(=O)N[C@H]2CC[C@H](N3CCN(CC4CCN(c5cccc6c5n(C)c(=O)n6C5CCC(=O)NC5=O)CC4)CC3)CC2)ccc1Nc1ncc(C(F)(F)F)c(N2CCC[C@](C)(O)C2)n1 (stereo partly shown) [Compound 14]
CDK2/CRBN/degrader ternary complex normalized AUC [14]: 10

Cc1cc(S(=O)(=O)NC2CC(N3CCN(CC4CCN(c5cccc6c5n(C)c(=O)n6C5CCC(=O)NC5=O)CC4)CC3)C2)ccc1Nc1ncc(C(F)(F)F)c(N2CCC[C@](C)(O)C2)n1 (stereo partly shown) [Compound 15]
CDK2/CRBN/degrader ternary complex normalized AUC [14]: 9.5

Cc1cc(S(=O)(=O)N[C@]2(C)C[C@@H](N3CCN(CC4CCN(c5ccc6c(c5F)n(C)c(=O)n6C5CCC(=O)NC5=O)CC4)CC3)C2)ccc1Nc1ncc(C(F)(F)F)c(N2CCC[C@](C)(O)C2)n1 (stereo partly shown) [Compound 17]
CDK2/CRBN/degrader ternary complex normalized AUC [14]: 13

Cc1cc(S(=O)(=O)NC2CC(N3CCN(CC4CCN(c5cccc6c5n(C)c(=O)n6C5CCC(=O)NC5=O)CC4)C4(CC4)C3)C2)ccc1Nc1ncc(C(F)(F)F)c(N2CCC[C@](C)(O)C2)n1 (stereo partly shown) [Compound 19]
CDK2/CRBN/degrader ternary complex normalized AUC [14]: 27

Cc1cc(S(=O)(=O)NC2CC(N3CC[C@@H](OC4CN(c5cccc6c5n(C)c(=O)n6C5CCC(=O)NC5=O)C4)[C@H](F)C3)C2)ccc1Nc1ncc(C(F)(F)F)c(N2CCC[C@](C)(O)C2)n1 (stereo partly shown) [Compound 20]
CDK2/CRBN/degrader ternary complex normalized AUC [14]: 7.9

Cc1cc(S(=O)(=O)NC2CC(N3CCN(CC4CCN(c5ccc(NC6CCC(=O)NC6=O)cc5C)CC4)CC3)C2)ccc1Nc1ncc(C(F)(F)F)c(N2CCC[C@](C)(O)C2)n1 (stereo partly shown) [Compound 21]
CDK2/CRBN/degrader ternary complex normalized AUC [14]: 4.0

Cc1cc(S(=O)(=O)N[C@H]2C[C@H](CN3CC(c4ccc(C5CCC(=O)NC5=O)c(Cl)c4)C3)C2)ccc1Nc1ncc(C(F)(F)F)c(N2CCC[C@](C)(O)C2)n1 (stereo partly shown) [Compound 22]
CDK2/CRBN/degrader ternary complex normalized AUC [14]: 0

Cc1cc(S(=O)(=O)N[C@H]2C[C@H](CN3CCN(c4ccc(C5CCC(=O)NC5=O)c(Cl)c4)CC3)C2)ccc1Nc1ncc(C(F)(F)F)c(N2CCC[C@](C)(O)C2)n1 (stereo partly shown) [Compound 23]
CDK2/CRBN/degrader ternary complex normalized AUC [14]: 4.8

Cc1cc(S(=O)(=O)N[C@H]2CC[C@H](CN3CCN(c4ccc(C5CCC(=O)NC5=O)c(Cl)c4)CC3)CC2)ccc1Nc1ncc(C(F)(F)F)c(N2CCC[C@](C)(O)C2)n1 (stereo partly shown) [Compound 24]
CYP3A4 inhibition (in words) [15]: time- and NADPH-dependent inhibition | CDK2/CRBN/degrader ternary complex normalized AUC [14]: 92

Cc1cc(S(=O)(=O)NC2CCC(CN3CCN(c4cccc(C5CCC(=O)NC5=O)c4)CC3)CC2)ccc1Nc1ncc(C(F)(F)F)c(N2CCC[C@](C)(O)C2)n1 (stereo partly shown) [Compound 26]
CDK2/CRBN/degrader ternary complex normalized AUC [14]: 0

Cc1cc(S(=O)(=O)N[C@H]2CC[C@H](CN3CCN(c4ccc(NC5CCC(=O)NC5=O)cc4F)CC3)CC2)ccc1Nc1ncc(C(F)(F)F)c(N2CCC[C@](C)(O)C2)n1 (stereo partly shown) [Compound 27]
CDK2/CRBN/degrader ternary complex normalized AUC [14]: 35

Cc1cc(S(=O)(=O)N[C@H]2CC[C@H](CN3CCN(c4cccc(NC5CCC(=O)NC5=O)c4)CC3)CC2)ccc1Nc1ncc(C(F)(F)F)c(N2CCC[C@](C)(O)C2)n1 (stereo partly shown) [Compound 28]
CDK2/CRBN/degrader ternary complex normalized AUC [14]: 100

Cc1cc(S(=O)(=O)N[C@H]2CC[C@H](CN3CCN(c4ccc(C5CCC(=O)NC5=O)cc4F)CC3)CC2)ccc1Nc1ncc(C(F)(F)F)c(N2CCC[C@](C)(O)C2)n1 (stereo partly shown) [Compound 29]
kinomescan S(10) score [1]: 0.007

C[C@]1(O)CCCN(c2nc(Nc3ccc(S(=O)(=O)N[C@H]4CC[C@H](CN5CCN(c6ccc(C7CCC(=O)NC7=O)cc6F)CC5)CC4)cc3F)ncc2C(F)(F)F)C1 (stereo partly shown) [Compound 31]
IC50 [15, 17]: > 10 µM | IC50 [15, 18]: > 10 µM | kinomescan S(10) score [1]: 0

C[C@]1(O)CCCN(c2nc(Nc3ccc(S(=O)(=O)N[C@H]4CC[C@H](CN5CCN(c6ccc(C7CCC(=O)NC7=O)cc6F)CC5)CC4)cc3Cl)ncc2C(F)(F)F)C1 (stereo partly shown) [Compound 32]
IC50 [15, 17]: > 10 µM | IC50 [15, 18]: > 10 µM | kinomescan S(10) score [1]: 0

COCc1cc(C(=O)Nc2cc([C@H]3CC[C@@H](OC(=O)NC(C)C)C3)[nH]n2)n(C)n1 [PF-07104091, reference compound]
antitumor activity [16]: stable disease (30 to −30% is stable disease (0% = Tumor Stasis)) | day 28 %dTV (mean ± SEM) ([16]; HCC1569 xenograft mice): 4 ± 15%
